# Experimental data reported in patent US20100272711A1, “COMPOSITIONS AND METHODS FOR THE TREATMENT AND PREVENTION OF CARDIOVASCULAR DISEASES” (THOMAS JEFFERSON UNIVERSITY, priority 2007, published 2010).
# Columns and labels:
# [1] = system: wild-type and TNF 1.6 mice; experiment: Left ventricular hemodynamics: chronotropic and functional responsiveness to adenosine analogue or AR agonists; assay type: in vivo, mouse
# Method: FIGS. 16A-16B show the cardiac response of wild type (WT) and TNF 1.6 transgenic mice to an adenosine analogue or AR agonists. Under anesthetization, a 1.4 F micromanometer catheter (Millar Instruments) was inserted into the left ventricle through the right carotid artery. Chronotropic and functional responsiveness to adenosine analogue or AR agonists were recorded. […] Values are mean±SEM (n=5). *P<0.05 vs. age-matched WT. The graph measured the slope (in vivo chronotropic responsiveness) from baseline to 10 minutes after drug administration in wild-type and TNF 1.6 mice. Values were mean±SEM (n=5) and compared using ANOVA General Linear Model with repeated measures. *P<0.05 vs. age-matched WT in slope change. The graph in FIG. 16B measured the slope (arterial pressure or cardiac contractility) from baseline to 10 minutes after drug administration in wild-type and TNF1.6 mice. Values were mean±SEM (n=5) and compared using ANOVA General Linear Model with repeated measures. *P<0.05 vs. age-matched WT in slope change. Left Ventricular Hemodynamics Measurement. After anesthetization with 2.5% Avertin (10 μl/g body weight, IP, Aldrich Chemical Co), mice were placed in the supine position. A 1.4 F micromanometer catheter (Millar Instruments) was inserted into the left ventricle through the right carotid artery.^64,65 Left ventricular pressure and heart rate were then recorded at baseline and 10 minutes after injection of CPA (0.1 mg/kg body weight, IP, Sigma-Aldrich Co). A1 receptor-specific functional response. To determine whether the changes in A1-AR levels had functional significance in TNF 1.6 mice, the inventors determined the chronotropic response to the selective A1-AR agonist, 2-chloro-N^6-cyclopentanyladenosine (CPA).
# [2] = system: animal models of ischemia/reperfusion injury; conditions: with a sodium-hydrogen exchanger inhibitor at reperfusion; or just before reperfusion in animal models; cited from earlier work
# [3] = system: cardiac A1-AR expression (tTA transactivation); experiment: Doxycycline-regulated A1-AR transgene expression (tet-off system) in A1-TG mice; assay type: in vivo, mouse
# Description: Transgenic mouse generation. The human A1-AR cDNA was cloned into a cardiac-specific and inducible controlled vector (TREMHC)^64 composed of a modified mouse α-myosin heavy chain minimal promoter fused with nucleotide binding sites for tetracyline transactivating factor (tTA).^33 A1-AR transgenic mice, engineered on a FVB background (PolyGene, Switzerland), were crossed with mice that expressed tTA in the heart (MHC-tTA) (FIG. 1A). In this “tet-off” inducible system, the stable tetracycline analog, doxycycline (DOX), inhibits tTA transactivation and was administered to mice at 300 mg/kg of mouse diet (Bio-Serv, NJ). Survival studies were performed using both male and female mice and found no statistical significant differences. Therefore, only male mice were used for subsequent studies. All protocols were approved by the Institutional Animal Care and Use Committee of Thomas Jefferson University.
# Doxycyline-regulated A1-AR expression. The stable tetracycline analog, doxycycline (DOX), inhibits tTA transactivation. The inventors determined a minimal dose of DOX (300 mg/kg of mouse diets) that attenuated A1-AR expression, which, in turn prevented cardiomyopathy. […] To generate inducible A1-AR transgenic mice (A1-TGInd), DOX was removed when mice reached three-weeks of age. […] At six weeks of age, A1-AR protein expression in A1-TGCcon and A1-TGInd was identical (FIGS. 2B and C). […]
# WT mice = experiment: Effect of DOX diet on heart size and function of wild type mice; assay type: in vivo, mouse; conditions: 300 mg/kg diet; 12-week-old mice; FIGS. 9 and 10
# Method: 7-10 12-weeks old mice from each group were measured. No significance was detected at p-value setting of P<0.05.
# Echocardiography were performed on 7-10 12-weeks-old male mice. No significance was detected at p-value setting of P<0.05.
# Echocardiography and Electrocardiogram (ECG). Echocardiographic studies on A1-AR transgenic mice were performed using an ultrasonographic system (ACUSON Sequoia C256) as described.^34,35 […] Non-transgenic littermates served as controls and unless otherwise noted, all mice were male. Mice were anesthetized with 2.5% Avertin (10 μl/g body weight, IP, Aldrich Chemical Co) and placed in the supine position. A 14-MHz transducer was applied to the left hemithorax. Two-dimensional targeted M-mode imaging was obtained from the short-axis view at the level of the greatest left ventricular dimension at baseline. […] End diastole was determined at the maximal left ventricular diastolic dimension, and end systole was taken at the peak of posterior-wall motion. […] ECG was recorded for 2 minutes and analyzed using Char 5 software (Adinstruments). […]
structure (smiles),measurement,setting,value
"OC[C@H]1O[C@@H](n2cnc3c(NC4CCCC4)nc(Cl)nc32)[C@H](O)[C@@H]1O [CPA, 2-chloro-N^6-cyclopentanyladenosine]",arterial pressure and cardiac contractility after injection,"[1]; baseline to 10 minutes after CPA injection, FIG. 16B",only slightly increased arterial pressure and cardiac contractility
same,chronotropic response in TNF 1.6 mice compared with age- and gender-matched wild-type controls,"[1]; baseline to 10 minutes after drug administration, n=5",far more robust decrease in heart rate
same,heart rate (chronotropic response),"[1]; wild-type mice, baseline to 10 minutes after injection, CPA 0.1 mg/kg IP",effectively decreased heart rate
"CCNC(=O)[C@H]1CC(n2cnc3c(N[C@H](CC)Cc4sccc4Cl)ccnc32)[C@H](O)[C@@H]1O (relative stereo) [AMP 579, [1S-[1α,2β,3β,4α(S*)]]-4-[7-[[3-chloro-2-thienyl)methyl]propyl]amino]-3H-imidazo[4,5-b]pyridin-3-yl]-N-ethyl-2,3-dihydroxycyclopentanecarboxamide]",cardioprotection,[2],cardioprotective
"C[C@H]1c2cccc(O)c2C(=O)C2=C(O)[C@]3(O)C(=O)C(C(N)=O)=C(O)[C@@H](N(C)C)[C@@H]3[C@@H](O)[C@@H]21 [DOX, doxycycline]",minimal dose that attenuated A1-AR expression,[3]; in turn prevented cardiomyopathy,300 mg/kg of mouse diets
same,transgene suppressed,[3]; sub-optimum DOX dose,80%
same,WT mouse heart size or function,WT mice,did not affect WT mouse heart size or function
